Reference: patent US20220348981A1, “ASSAY OF ARYLSULFATASE A ENZYMATIC ACTIVITY IN DRIED BLOOD SPOTS BY MASS SPECTROMETRY AND FLUOROMETRY” (University of Washington, priority 2019, published 2022)

How the values were obtained:
arylsulfatase A (ARSA) [1] = molecular target: T1, arylsulfatase A (ARSA) (Homo sapiens, UniProt P15289); assay: ARSA leukocyte assay by LC-MS/MS with deuterated sulfatide substrate; type: biochemical; settings: for effect on ARSA activity: additive in assay buffer, increasing amount (Ce(acetate)3 0 to 20 mM)
T1 construct: the assay is able to detect ARSA enzymatic activity in lysates of mixed leukocytes (mainly lymphocytes) by LC-MS/MS; endogenous in cells; host or cells: mixed leukocytes (mainly lymphocytes) prepared from K2EDTA venous blood; lysate, 2 µg protein per assay
T1 sequence (P15289 19-507): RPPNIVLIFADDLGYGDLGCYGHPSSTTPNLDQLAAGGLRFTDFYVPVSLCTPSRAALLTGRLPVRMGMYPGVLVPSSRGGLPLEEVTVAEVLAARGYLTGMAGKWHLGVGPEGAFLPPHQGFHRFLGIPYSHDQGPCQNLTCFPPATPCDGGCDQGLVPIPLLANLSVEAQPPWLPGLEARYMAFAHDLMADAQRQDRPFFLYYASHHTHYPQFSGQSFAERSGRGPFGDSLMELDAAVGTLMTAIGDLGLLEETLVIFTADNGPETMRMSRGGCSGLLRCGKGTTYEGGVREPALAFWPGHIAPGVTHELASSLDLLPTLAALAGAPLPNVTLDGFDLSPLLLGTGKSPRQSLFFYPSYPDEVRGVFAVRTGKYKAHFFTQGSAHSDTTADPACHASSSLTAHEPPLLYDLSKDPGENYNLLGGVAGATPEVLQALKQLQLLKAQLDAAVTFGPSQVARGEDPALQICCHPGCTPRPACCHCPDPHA
Method: Development of a new ARSA leukocyte assay. Recently, Han et al. reported the detection of ARSA enzymatic activity where a natural substrate, C18:0-sulfatide, was incubated with leukocyte lysate in buffer containing sodium taurodeoxycholate as detergent (Han, M.; Jun, S. H.; Song, S. H.; Park, H. D.; Park, K. U.; Song, J., Ultra-performance liquid chromatography-tandem mass spectrometry measurement of leukocyte arylsulfatase A activity using a natural substrate. Ann Lab Med 2015, 35 (1), 165-8). As described herein, in the present assay, the deuterium labeled sulfatide d3-C18:0-sulfatide was used as substrate so that the enzymatic product (d3-C18:0-galactosyl-ceramide) also carried the three deuterium labels, and could be selectively quantified without being interfered by the endogenous galactosyl-ceramide. Using this approach, the assay is able to detect ARSA enzymatic activity in lysates of mixed leukocytes (mainly lymphocytes) by LC-MS/MS. […] If leukocyte lysate was omitted, no discernable product peak was observed above the baseline noise (data not shown). […] Because detergent was present in the assay buffer, MLD patients that are due to dysfunctional Saposin B protein will not be detected with this assay, but these variants are very rare among MLD patients (less than 5%). In the Han et al. report, MnCl2 was added to the buffer at a concentration of 33 mM. […] Barium or cerium […] are often used to assay sulfatases in complex matrices to sequester inorganic sulfate and phosphate ions, which are potent inhibitors of sulfatases. […] The ARSA activity was pH dependent with an optimal pH at 4.5. […] The pH optimum of ARSA and the KM value found agreed with the previous reports. […]
Enzymatic activity calculation. ARSA activity in leukocyte (nmol/h/mg protein) was calculated by multiplying the ion ratio of ARSA product to ARSA internal standard (blank subtracted) by the nanomoles of internal standard added to the assay, then dividing by the incubation time (h) and the amount of leukocyte protein used (mg). […]

arylsulfatase A (ARSA) [2] = molecular target: T1, arylsulfatase A (ARSA); assay: ARSA assay with a 3 mm DBS punch, no purification; type: biochemical; settings: 5 mM added to the assay buffer; data not shown
Method: Application of ARSA assay to DBS extracts purified by immune-precipitation. Initial attempts to detect ARSA enzymatic activity in DBS were unsuccessful. When the leukocyte lysate was substituted with a 3 mm DBS punch in the ARSA assay, no ARSA activity could be detected. Moreover, no ARSA activity was observed when leukocyte lysate was co-incubated with a DBS punch, whereas activity was seen when the leukocyte was incubated with a filter paper punch lacking blood matrix (data not shown). This indicated the presence of some ARSA inhibitor(s) in whole blood.

## CC(=O)[O-].CC(=O)[O-].CC(=O)[O-].[Ce+3] [Ce(acetate)3]
Arylsulfatase A (ARSA) [1]
  effect on ARSA activity: decrease
Arylsulfatase A (ARSA) [2]
  rescue of ARSA activity in DBS: did not rescue ARSA activity

## [Cl][Mn][Cl] [MnCl2]
Arylsulfatase A (ARSA) [1]
  effect on ARSA activity: decrease with increasing amount

## CC(=O)[O-].CC(=O)[O-].[Pd+2] [Pd(Acetate)2]
Arylsulfatase A (ARSA) [2]
  rescue of ARSA activity in DBS: did not rescue ARSA activity

## d3-C18:0-sulfatide
Arylsulfatase A (ARSA) [1]; leukocyte lysate, substrate concentration varied, hyperbolic kinetics, pH 4.5
  Km: 83 µM
